# PubChem BioAssay AID488890 (Southern Research Specialized Biocontainment Screening …, 2010)
# Records with an inconclusive call do not appear. Activity calls are given as the source filed them. No rule for the calls is given here.
# Tested on: Mycobacterium tuberculosis non-replicating, growth inhibition
# Assay: growth inhibition of non-replicating M. tuberculosis (AID 488890)
row,Compound,IC50
1,C/C(=N\Nc1nc2ccccc2[nH]1)c1ccc(N2CCOCC2)cc1,10.5 µM (inactive)
2,O=C(N/N=C/c1cc(Br)ccc1O)c1ccccc1Cl,0.48 µM
3,COc1ccc(N2C(=O)C(F)(F)C2c2cccc(F)c2)cc1 (stereo not drawn),2.15 µM
4,c1ccc2[nH]c(NC3=NCCC3)nc2c1,19.2 µM (inactive)
5,CC(=O)N1CCC(=NNC(=O)c2cccs2)CC1,20.7 µM (inactive)
6,Cc1ccc(NC(=O)C2COc3ccccc3O2)nc1 (stereo not drawn),6.26 µM
7,Oc1ccccc1Nc1nc(NCC2CCCO2)c2ccccc2n1 (stereo not drawn),30.7 µM (inactive)
8,O=C(N/N=C/C(Br)=C/c1ccccc1)c1cnccn1,13.1 µM (inactive)
9,O=C(Nc1ccccc1)c1ccc(Br)o1,14 µM (inactive)
10,Cc1ccc(CC(=O)N2CCN(c3ccc([N+](=O)[O-])cc3)CC2)cc1,16 µM (inactive)
11,CSC1=N/C(=C\c2ccc3c(c2)OCO3)C(=O)S1,4.95 µM
12,COc1ccc(NC(=O)CCCN2C(=O)/C(=C\c3ccco3)SC2=S)cc1,7.93 µM
13,CCOc1cc(-c2sc(Nc3cc(C)ccc3OC)n[n+]2-c2ccccc2)ccc1OC,4.29 µM
14,COC(=O)C1=C(C(=O)OC)C(c2cc(Cl)ccc2O)c2sc(=O)[nH]c2S1 (stereo not drawn),34.9 µM (inactive)
15,O=C(N/N=C/c1ccc(Br)s1)c1ccncc1,0.47 µM
16,CCN1CSC(=S)N(Cc2ccc(OC)cc2)C1,18.5 µM (inactive)
17,CCOC(=O)Cc1csc(NC(=O)COc2ccc3c(c2)CCC3)n1,13.5 µM (inactive)
18,CC1C/C(=N/N2C(=O)CSC2=S)CC(C)(C)C1 (stereo not drawn),30.6 µM (inactive)
19,O=C(N/N=C/c1ccc(OC(=O)c2ccco2)cc1)c1ccccn1,6.05 µM
20,NC(=S)n1[nH]c(-c2ccc([N+](=O)[O-])cc2)c(N=Nc2ccc(O)cc2)c1=O,18.5 µM (inactive)
21,Cc1oc(=O)c(NC(=O)c2ccccc2)cc1C(=O)c1ccccc1,5.33 µM
22,CCc1ccc(NC(=O)C(=O)NNC(=O)c2cccc(OC)c2)cc1,1.06 µM
23,C/C(=N\NC(=O)c1ccc([N+](=O)[O-])c(C)c1)c1ccccc1Cl,12.2 µM (inactive)

row,Compound,IC50
1,O=C(Nc1nccs1)c1ccccn1,14.5 µM (inactive)
2,COc1ccc(-c2cc(C(F)(F)F)nc(S(C)(=O)=O)n2)cc1,2.87 µM
3,O=C(Nc1nnc(-c2ccc(Br)cc2)o1)C1=COCCO1,24.6 µM (inactive)
4,Cc1ccccc1Cn1cc(NC(=O)c2noc(C(C)C)c2[N+](=O)[O-])cn1,7.58 µM
5,CSc1nn(-c2ccc(C(=O)OCC(=O)NC(=O)NC(C)C)cc2)c(=S)s1,16 µM (inactive)
6,O=C(N/N=C/c1cc(Br)c(Br)s1)c1ccncc1,3.18 µM
7,Cc1nnc(N/N=C/c2ccc(-c3ccc(Br)cc3)o2)n1N,3.49 µM
8,Cc1ccc(C(=O)N/N=C/c2ccc([N+](=O)[O-])s2)cc1,2.14 µM
9,Cc1ccc(-n2sc3ccccc3c2=O)cc1,14.3 µM (inactive)
10,C=CCn1c(O)c(C(C)=Nc2ccc(C(=O)OCC)cc2)c(=O)[nH]c1=O,7.05 µM
11,CC1=NN(C(=O)c2ccc(C)o2)C(O)(c2ccccc2)C1 (stereo not drawn),3.05 µM
12,CCOC(=O)COc1ccc(C2CC(C)=NN2c2ccccc2)cc1 (stereo not drawn),2.55 µM
13,CCc1nnc(N/N=C/c2c(F)cccc2Cl)n1N,15.3 µM (inactive)
14,CCOC(=O)COc1ccc2c3c(c(=O)oc2c1C)CCC3,14 µM (inactive)
15,CCOc1ccc(C(=O)N/N=C/c2cccc3cccnc23)cc1,4.65 µM
16,CC(C)[C@H]1CN=C2N(C[C@H](C)NC(=O)CCC3CCCCC3)[C@H](Cc3ccc(O)cc3)CN21,19.3 µM (inactive)
17,C/C(=N\NC(=O)COc1cccc(C)c1)c1ccc2ccccc2c1O,0.18 µM
18,Cc1onc(-c2ccccc2Cl)c1C(=O)O/N=C(\N)c1ccc([N+](=O)[O-])o1,4.55 µM
19,O=C(N/N=C/c1ccccn1)c1cccc([N+](=O)[O-])c1,3.91 µM
20,Cc1cccc(C(=O)Nc2nnc(-c3cccnc3)o2)c1,7.46 µM
21,CC/C(=C\C=C\[C@@H]1C=C[C@@H]2CCC[C@H]2[C@@H]1C(=O)c1ccc[nH]1)[C@@H]1O[C@@H]([C@@H](C)C(=O)O)CC[C@@H]1C,3.28 µM
22,Cc1c(CN2CCC(CO)(CCOc3ccccc3)CC2)[nH]c2c(Cl)cccc12,8.93 µM
23,CCOC(=O)c1sc(NC(=O)CCN2CCOCC2)c(C(=O)OCC)c1C,1.73 µM

row,Compound,IC50
1,Cc1cccc(NC(=O)c2ccc([N+](=O)[O-])s2)n1,0.52 µM
2,CCOc1ccc(OCC(=O)Nc2nccs2)cc1,7.75 µM
3,CC(C)OC(=O)c1cc(C(=O)c2cc(Cl)ccc2O)coc1=N,4.66 µM
4,CCOC(=O)Nc1cccc(OCC(=O)Nc2ccc(OC)cc2OC)c1,16.5 µM (inactive)
5,O=C(CCS(=O)(=O)Cc1ccccc1)Nc1ncc([N+](=O)[O-])s1,1.97 µM
6,CCOC(=O)c1c(NC(C)=O)sc2c(OCC(O)CNC(C)(C)C)c(Br)ccc12 (stereo not drawn),4.44 µM
7,CN(C)C=C1C(=O)N(C2CCCCC2)C(=O)N(C2CCCCC2)C1=O,1.57 µM
8,c1ccc(-c2nnc(SCc3cn4ccsc4n3)o2)cc1,11.1 µM (inactive)
9,C=CCNc1nnc(Sc2ncccc2[N+](=O)[O-])s1,4.7 µM
10,Cc1ccc(-c2nnc(NC3CCCC3)s2)cc1,23.8 µM (inactive)
11,CCOC(=O)Cc1c(C)nc2c(-c3cccc(Br)c3)c[nH]n2c1=O,4.13 µM
12,Cc1ccc(NC(=O)c2noc(C(C)C)c2[N+](=O)[O-])cc1,19.3 µM (inactive)
13,O=C1c2ccccc2CC1Sc1nnc(-c2ccncc2)o1 (stereo not drawn),23.9 µM (inactive)
14,O=C(Nc1nccs1)c1ccc(-c2ccc(Cl)cc2)o1,21.3 µM (inactive)
15,O=C(Cc1ccccc1)Nc1ccc(C(=O)NCC2COc3ccccc3O2)cc1 (stereo not drawn),28.3 µM (inactive)
16,Cn1nnnc1N=N/C(=N/Nc1ccccc1)c1ccccc1,6.47 µM
17,O=C(OCn1ncc(Br)c(Br)c1=O)c1ccccc1Cl,6.27 µM
18,Cn1cccc1/C=N\NC(=O)C1COc2ccccc2O1 (stereo not drawn),13.2 µM (inactive)
19,Cc1ccc(CO/N=C/c2c(O)cc(C)oc2=O)cc1,16.6 µM (inactive)
20,O=C(O)c1ccc(-n2nc(C(F)(F)F)c3c2CCCC3)cc1,34.2 µM (inactive)
21,C=CCc1ccc(OCC(O)CN2CCN(Cc3ccc(Cl)cc3)CC2)c(OC)c1 (stereo not drawn),15.7 µM (inactive)
22,O=C(CCSc1nnc(-c2ccccc2)o1)N1CCOCC1,3.95 µM
23,Oc1c(Cl)cc(CN2CCOCC2)c2cccnc12,2.53 µM

row,Compound,IC50
1,COc1c[nH]n(C2CCCCC2)c(=O)c1=O,8.76 µM
2,O=[N+]([O-])c1cc(Cl)cc(/C=N\Nc2ccccn2)c1O,1.18 µM
3,O=C(c1cccs1)N1CCN(c2ccc(Cl)cc2)CC1,27.2 µM (inactive)
4,CC(=O)OCCN(C)c1cc(SC(C)C)c2nonc2c1[N+](=O)[O-],13.7 µM (inactive)
5,CCOC(=O)CCS(=O)(=O)c1nc(-c2ccccc2)cc(C(F)(F)F)n1,0.99 µM
6,Cc1onc(-c2ccccc2)c1C(=O)Nc1nnc(COc2ccc(Cl)cc2)s1,8.2 µM
7,c1ccc(/N=C2\N=C(Nc3ccccn3)c3ccccc32)nc1,< 0.1 µM
8,C/C(=N\NC(=O)c1ccc(Cl)cc1)c1ccccn1,0.89 µM
9,O=C(OCc1ccccn1)c1ccc(COc2ccccc2Cl)o1,3.14 µM
10,CCC(=O)N/N=C/c1ccc(-c2ccc(Cl)cc2)o1,8.36 µM
11,COc1cccc(/C=C2\SC(=S)N(CCC(=O)N3CCCCC3)C2=O)c1,9.08 µM
12,COC(CNC(=O)c1ccc2c3c(onc13)-c1ccccc1C2=O)OC,2.4 µM
13,c1ccc(-c2nc(NCCCn3ccnc3)c3ccccc3n2)cc1,17.8 µM (inactive)
14,CCOC(=O)NC(=O)COC(=O)CCCSc1nc2ccccc2s1,10 µM (inactive)
15,Cc1ccccc1OCCNc1cc(N2CC(C)NC(C)C2)ccc1[N+](=O)[O-] (stereo not drawn),10.8 µM (inactive)
16,COc1cc(N=c2ssnc2Cl)cc(OC)c1OC,17.9 µM (inactive)
17,Cc1cc2n(n1)SC(Nc1ccccc1)N2 (stereo not drawn),26.7 µM (inactive)
18,O=C(CCN1CCCCCC1)c1ccccc1,9.1 µM
19,CCOc1c(OC(C)=O)ccc(/C=C2\N=C(SCC)SC2=O)c1[N+](=O)[O-],10.2 µM (inactive)
20,CC(/C=C/c1cccc([N+](=O)[O-])c1)=N\NC(=O)c1ccncc1,1.2 µM
21,O=C(N/N=C/c1ccc(OC(=O)c2cccs2)cc1)c1ccccn1,2.94 µM
22,CCOc1ccc2nc(/N=C/c3nc(-c4ccccc4)oc3O)sc2c1,6.2 µM
23,Cc1nc(C(=O)Nc2ccccc2)sc1C(=O)Nc1ccccc1,9.77 µM

row,Compound,IC50
1,Cn1[nH]c(-c2ccccc2)c(/C=N/O)c1=O,8.99 µM
2,O=Cc1ccc(-c2ccc(Cl)cc2Cl)[nH]1,17.3 µM (inactive)
3,CC1(C)CC(=O)C2=C(C1)OC(N)=C(C#N)C2C#Cc1ccccc1 (stereo not drawn),4.07 µM
4,Cc1cccc(C2=N/C(=C\c3cccnc3)C(=O)O2)c1,12.8 µM (inactive)
5,CC1(O)CC(c2ccc(Cl)cc2)=NN1C(=O)c1ccc([N+](=O)[O-])cc1 (stereo not drawn),0.18 µM
6,CCc1cc2c3c(c1)C(C)CC(C)(C)N3C(=O)/C2=C1\SC(=O)NC1=O (stereo not drawn),21.5 µM (inactive)
7,COC(=O)c1ccc(C(=O)NC2CC(C)(C)Cc3c2cnn3-c2ccc(F)cc2)nc1 (stereo not drawn),15.7 µM (inactive)
8,CC(NC(=O)COc1ccc(-c2ccccc2)cc1)C1CCCO1 (stereo not drawn),8.2 µM
9,CCOc1cccc2cc(C(=O)NC(C)c3ccccc3)c(=N)oc12 (stereo not drawn),32.9 µM (inactive)
10,Cc1cccc2cc(C#N)c(NCCCn3ccnc3)nc12,23.3 µM (inactive)
11,CC(C)C(=O)Nc1cccc(-c2nc3ccccc3c(=O)o2)c1,3.79 µM
12,O=C(Oc1ccccc1Cl)c1ccc2c(=O)n3c(nc2c1)CCC3,2.28 µM
13,Cc1cccc(NC(=O)c2n[nH]c([N+](=O)[O-])c2Br)c1C,7.96 µM
14,CCCn1nnnc1NCc1ccc(C(C)C)cc1,5.89 µM
15,CC(C)(C)c1csc(NC(=O)c2ccccc2O)n1,19.6 µM (inactive)
16,Nc1ccc(Br)c2cccnc12,15.8 µM (inactive)
17,O=C1NC(=O)C(=Cc2ccc(-c3ccc(Cl)cc3)o2)C(=O)N1,< 0.1 µM
18,O=C(COc1ccc(F)cc1)Nc1ccc2c(c1)OCCO2,6.38 µM
19,CCCCNC(=O)Nc1nnc(-c2ccc(Cl)cc2)o1,22.8 µM (inactive)
20,CCCN(CCC)S(=O)(=O)c1ccc(C(=O)Nc2nnc(-c3cccc(OC)c3)o2)cc1,11.3 µM (inactive)
21,Cc1nc2ccc(NC(=O)c3ccc([N+](=O)[O-])cc3[N+](=O)[O-])cc2s1,7.88 µM
